In the supplement of paper PMC10307832:

Key:
Assay in all cases: relative viability (nuclei count vs DMSO), 5 days (fraction); higher = more cells survive
GSK126 + Luminespib = compound: CC[C@H](C)N1C=C(C2=C(C=C(C=C21)C3=CN=C(C=C3)N4CCNCC4)C(=O)NCC5=C(C=C(NC5=O)C)C)C [GSK126] + CCNC(=O)c1noc(-c2cc(C(C)C)c(O)cc2O)c1-c1ccc(CN2CCOCC2)cc1 [Luminespib] (partner 0.01 µM)
Procedure, shortened: (§1)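 Relative viability divides the nuclei count in treated wells by that in vehicle wells. Lung cancer cell lines were seeded in 1536-well plates, dosed by pin tool the next day, and fixed and stained after 5 days in one step with final 0.05% Triton X-100, 1% formaldehyde and 1 ug/ml Hoechst. Dosing was a single drug or a fixed anchor-drug dose plus five library-drug doses (not always all listed) in √10 steps, and values are medians of duplicate plates imaged at 4×.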

GSK126 + Pictilisib = compound: CC[C@H](C)N1C=C(C2=C(C=C(C=C21)C3=CN=C(C=C3)N4CCNCC4)C(=O)NCC5=C(C=C(NC5=O)C)C)C [GSK126] + CS(=O)(=O)N1CCN(Cc2cc3nc(-c4cccc5[nH]ncc45)nc(N4CCOCC4)c3s2)CC1 [Pictilisib] (partner 1 µM)
Procedure, shortened: as §1

Carboplatin + Navitoclax = compound: C1CC(C1)(C(=O)O)C(=O)O.[NH2-].[NH2-].[Pt+2] [Carboplatin] + CC1(C)CCC(c2ccc(Cl)cc2)=C(CN2CCN(c3ccc(C(=O)NS(=O)(=O)c4ccc(N[C@H](CCN5CCOCC5)CSc5ccccc5)c(S(=O)(=O)C(F)(F)F)c4)cc3)CC2)C1 [Navitoclax] (partner 0.5 µM)
Procedure, shortened: as §1

| Cell Line | relative viability (GSK126 + Luminespib; first compound 0.08 µM) | relative viability (GSK126 + Luminespib; first compound 0.253 µM) | relative viability (GSK126 + Luminespib; first compound 0.8 µM) | relative viability (GSK126 + Luminespib; first compound 2.53 µM) | relative viability (GSK126 + Luminespib; first compound 8 µM) | relative viability (GSK126 + Pictilisib; first compound 0.08 µM) | relative viability (GSK126 + Pictilisib; first compound 0.253 µM) | relative viability (GSK126 + Pictilisib; first compound 0.8 µM) | relative viability (GSK126 + Pictilisib; first compound 2.53 µM) | relative viability (GSK126 + Pictilisib; first compound 8 µM) | relative viability (Carboplatin + Navitoclax; first compound 0.08 µM) | relative viability (Carboplatin + Navitoclax; first compound 0.253 µM) | relative viability (Carboplatin + Navitoclax; first compound 0.8 µM) | relative viability (Carboplatin + Navitoclax; first compound 2.53 µM) | relative viability (Carboplatin + Navitoclax; first compound 8 µM) |
| --- | --- | --- | --- | --- | --- | --- | --- | --- | --- | --- | --- | --- | --- | --- | --- |
| 201T | 1.01 | 1.05 | 1.08 | 1.12 | 1.2 | 0.686 | 0.8 | 0.738 | 0.691 | 0.728 | 1.2 | 1.18 | 1.12 | 1.14 | 1.18 |
| A549 | – | – | – | – | – | 0.506 | 0.479 | 0.485 | 0.46 | 0.53 | 1.25 | 1.29 | 1.18 | 0.985 | 0.535 |
| A-427 | 1.29 | 0.87 | 0.82 | 0.884 | 0.769 | 0.855 | 0.786 | 0.701 | 0.799 | 0.641 | 0.973 | 0.941 | 0.953 | 0.908 | 0.964 |
| ABC-1 | 0.737 | 0.449 | 0.575 | 1.13 | 0.955 | 0.972 | 1.03 | 0.732 | 0.858 | 0.687 | – | – | – | – | – |
| BEN | 0.465 | 0.681 | 0.222 | 0.419 | 0.342 | 0.706 | 0.569 | 0.582 | 0.541 | 0.438 | 0.0584 | 0.0591 | 0.0635 | 0.0642 | 0.0703 |
| CAL-12T | 0.605 | 0.552 | 0.45 | 0.496 | 0.636 | 0.466 | 0.499 | 0.357 | 0.596 | 0.343 | 1.2 | 1.21 | 1.23 | 1.26 | 1.09 |
| COR-L23 | 0.752 | 0.702 | 0.614 | 0.637 | 0.608 | 0.946 | 0.735 | 0.817 | 0.839 | 0.768 | 0.992 | 0.883 | 0.838 | 0.84 | 0.443 |
| COR-L 105 | 1.01 | 0.74 | 0.78 | 0.734 | 0.839 | 0.435 | 0.406 | 0.347 | 0.389 | 0.459 | 0.66 | 0.809 | 0.595 | 0.822 | 0.531 |
| Calu-6 | – | – | – | – | – | 1.03 | 0.987 | 0.913 | 1.07 | 0.967 | 0.931 | 0.77 | 0.824 | 0.737 | 0.296 |
| ChaGo-K-1 | 0.602 | 0.675 | 0.556 | 0.769 | 0.397 | 0.831 | 0.656 | 0.746 | 0.722 | 0.649 | 1.17 | 1.01 | 0.944 | 0.798 | 0.53 |
| EBC-1 | – | – | – | – | – | 0.42 | 0.321 | 0.41 | 0.321 | 0.25 | 0.479 | 0.364 | 0.443 | 0.401 | 0.33 |
| EKVX | 0.842 | 0.878 | 0.856 | 0.836 | 0.896 | 0.417 | 0.474 | 0.408 | 0.518 | 0.353 | 0.948 | 1.03 | 0.909 | 0.967 | 0.852 |
| EMC-BAC-2 | 1.19 | 1.17 | 1.17 | 1.11 | 1.24 | 0.516 | 0.549 | 0.496 | 0.53 | 0.592 | 1.24 | 1.11 | 1.16 | 1.12 | 1.02 |
| EPLC-272H | 0.485 | 0.198 | 0.595 | 0.522 | 0.237 | 0.35 | 0.337 | 0.26 | 0.329 | 0.3 | 1.15 | 1.18 | 0.978 | 1.29 | 1.11 |
| H3255 | 0.988 | 0.968 | 0.898 | 0.95 | 1.01 | 0.472 | 0.512 | 0.492 | 0.466 | 0.441 | 0.658 | 0.563 | 0.634 | 0.471 | 0.476 |
| HARA | 0.787 | 0.679 | 0.688 | 0.895 | 0.813 | 0.394 | 0.421 | 0.48 | 0.411 | 0.37 | 1.1 | 1.16 | 1.08 | 1.07 | 1.09 |
| HCC-15 | 0.494 | 0.268 | 0.41 | 0.286 | 0.245 | 0.767 | 0.709 | 0.698 | 0.673 | 0.676 | 0.73 | 0.702 | 0.718 | 0.699 | 0.604 |
| HCC-44 | 1.14 | 1.1 | 1 | 1.11 | 1.16 | 0.643 | 0.534 | 0.894 | 0.61 | 0.591 | 0.949 | 0.99 | 0.914 | 0.786 | 0.874 |
| HCC-78 | – | – | – | – | – | 0.25 | 0.201 | 0.178 | 0.217 | 0.237 | 0.782 | 0.92 | 0.707 | 0.751 | 0.816 |
